# From PMC8933873 (European Journal of Medicinal Chemistry, 2022)
# Where two headings read alike, the source gives them in different places.
# Columns and labels:
# [1] = GI permeability, 50 μM, 25 °C, 3 h
# [2] = tested on: SARS-CoV-2 virus strain hCoV-19/Taiwan/4/2020; assay type: cell-based
# TMEM16F = assay type: cell-based; conditions: 1 h treatment, Vero E6 cells, annexin XII
# SARS-CoV-2 [3] = conditions: read-out: Anti-SARS-CoV-2 IC50; literature value; cited from earlier work
# in vitro = conditions: PAMPA
# SARS-CoV-2 [4] = assay: Quantification of SARS-CoV-2 viral load via antibody staining; assay type: cell-based
# COVID-19 = conditions: non-hospitalized adult patients with mild-to-moderate COVID-19, phase 3 study; cited from earlier work
Molecule,PAMPA [1],antiviral efficacy in CPE screening [2],other results
5-Chloro-N-(3-hydroxybenzyl)-2-hydroxybenzamide [Compound 13],15.9 10^−6 cm/s,inactive,–
5-Chloro-N-(4-hydroxybenzyl)-2-hydroxybenzamide [Compound 14],33.1 10^−6 cm/s,inactive,–
"O=C(Nc1ccc([N+](=O)[O-])cc1Cl)c1cc(Cl)ccc1O [Compound 1, 5-Chloro-N-(2-chloro-4-nitrophenyl)-2-hydroxybenzamide]",8.5 10^−6 cm/s,–,phosphatidylserine externalization triggered by ionomycin (TMEM16F; 100 nM): significantly reduced the signal of phosphatidylserine on cell surface; IC50 (SARS-CoV-2 [3]): 340 nM
"O=C(Nc1ccccc1)c1cc(Cl)ccc1O [Compound 2, 5-Chlorosalicylanilide]",16.0 10^−6 cm/s,antiviral efficacy that were superior to their cytotoxicity,–
"O=C(Nc1ccc([N+](=O)[O-])cc1)c1cc(Cl)ccc1O [Compound 3, 5-Chloro-N-(4-nitrophenyl)-2-hydroxybenzamide]",–,antiviral efficacy that were superior to their cytotoxicity,Papp (in vitro): 12.4 ×10⁻⁶ cm/s
"O=C(Nc1cccc([N+](=O)[O-])c1)c1cc(Cl)ccc1O [Compound 4, 5-Chloro-N-(3-nitrophenyl)-2-hydroxybenzamide]",19.5 10^−6 cm/s,antiviral efficacy that were superior to their cytotoxicity,–
"O=C(Nc1ccc([N+](=O)[O-])c(Cl)c1)c1cc(Cl)ccc1O [Compound 5, 5-Chloro-N-(3-chloro-4-nitrophenyl)-2-hydroxybenzamide]",–,–,anti-SARS-CoV-2 activity relative to niclosamide (SARS-CoV-2 [4]): 7 fold
"O=C(Nc1cccc(Cl)c1)c1cc(Cl)ccc1O [Compound 6, 5-Chloro-N-(3-chlorophenyl)-2-hydroxybenzamide]",8.6 10^−6 cm/s,antiviral efficacy that were superior to their cytotoxicity,–
"O=C(Nc1ccc(F)c(Cl)c1)c1cc(Cl)ccc1O [Compound 7, 5-Chloro-N-(3-chloro-4-fluorophenyl)-2-hydroxybenzamide]",11.5 10^−6 cm/s,diminished,–
"O=C(Nc1ccc(F)cc1)c1cc(Cl)ccc1O [Compound 8, 5-Chloro-N-(4-fluorophenyl)-2-hydroxybenzamide]",–,inactive,Papp (in vitro): 18.2 ×10⁻⁶ cm/s
"O=C(Nc1cccc(F)c1)c1cc(Cl)ccc1O [Compound 9, 5-Chloro-N-(3-fluorophenyl)-2-hydroxybenzamide]",3.7 10^−6 cm/s,inactive,–
"O=C(Nc1ccc(C(F)(F)F)cc1)c1cc(Cl)ccc1O [Compound 10, 5-Chloro-N-(4-trifluoromethylphenyl)-2-hydroxybenzamide]",6.9 10^−6 cm/s,antiviral efficacy that were superior to their cytotoxicity,–
"O=C(Nc1cccc(C(F)(F)F)c1)c1cc(Cl)ccc1O [Compound 11, 5-Chloro-N-(3-trifluoromethylphenyl)-2-hydroxybenzamide]",4.2 10^−6 cm/s,antiviral efficacy that were superior to their cytotoxicity,–
"CC(C)(C)c1cccc(NC(=O)c2cc(Cl)ccc2O)c1 [Compound 12, 5-Chloro-N-(3-tert-butylphenyl)-2-hydroxybenzamide]",18.7 10^−6 cm/s,antiviral efficacy that were superior to their cytotoxicity,–
"O=C(Nc1ccc(N2CCCCC2)cc1)c1cc(Cl)ccc1O [Compound 15, 5-Chloro-N-(4-(piperidin-1-yl)phenyl)-2-hydroxybenzamide]",43.3 10^−6 cm/s,inactive,–
"Cc1ccc(CNC(=O)c2cc(Cl)ccc2O)cc1 [Compound 16, 5-Chloro-N-(4-methylbenzyl)-2-hydroxybenzamide]",42.6 10^−6 cm/s,did not show viral inhibition,–
"Cc1cccc(CNC(=O)c2cc(Cl)ccc2O)c1 [Compound 17, 5-Chloro-N-(3-methylbenzyl)-2-hydroxybenzamide]",28.4 10^−6 cm/s,did not show viral inhibition,–
"O=C(Nc1ccc([N+](=O)[O-])cc1Cl)c1ccccc1O [Compound 18, N-(2-chloro-4-nitrophenyl)-2-hydroxybenzamide]",15.3 10^−6 cm/s,antiviral efficacy that were superior to their cytotoxicity,–
"O=C(Nc1ccc([N+](=O)[O-])cc1Cl)c1ccccc1 [Compound 19, N-(2-chloro-4-nitrophenyl)benzamide]",42.2 10^−6 cm/s,–,–
"Cc1ccc(O)c(C(=O)Nc2ccc([N+](=O)[O-])cc2Cl)c1 [Compound 20, 5-Methyl-N-(2-chloro-4-nitrophenyl)-2-hydroxybenzamide]",20.9 10^−6 cm/s,diminished,–
"Cc1ccc(C(=O)Nc2ccc([N+](=O)[O-])cc2Cl)c(O)c1 [Compound 21, 4-Methyl-N-(2-chloro-4-nitrophenyl)-2-hydroxybenzamide]",6.1 10^−6 cm/s,diminished,–
"O=C(Nc1ccc([N+](=O)[O-])cc1Cl)c1cc(F)ccc1O [Compound 22, 5-Fluoro-N-(2-chloro-4-nitrophenyl)-2-hydroxybenzamide]",30.7 10^−6 cm/s,diminished,–
"O=C(Nc1ccc(O[C@@H]2O[C@H](CO)[C@@H](O)[C@H](O)[C@H]2O)cc1)c1cc(Cl)ccc1O [Compound 27, 5-Chloro-N-(4-phenyl-β-D-glucopyranoside)-2-hydroxybenzamide]",1.9 10^−6 cm/s,inactive,–
CC(C)C(=O)OC[C@H]1O[C@@H](n2ccc(NO)nc2=O)[C@H](O)[C@@H]1O [Molnupiravir],–,–,reduction of the risk of hospitalization or death (COVID-19): 30%
Cc1c(O)cccc1C(=O)N[C@@H](CSc1ccccc1)[C@H](O)CN1C[C@H]2CCCC[C@H]2C[C@H]1C(=O)NC(C)(C)C [Nelfinavir],–,–,phosphatidylserine externalization triggered by ionomycin (TMEM16F; 500 nM): no inhibition
